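In this assay, cells in 96-well plates receive the compound at five concentrations for 48 hours. Endpoints are linearly interpolated between the surrounding concentrations. Definition used: TGI = concentration required for complete inhibition of growth.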
What was measured:
Assay in all cases: NCI tumour cell line growth inhibition, 48 h
786-0 renal = tested on: 786-0 renal
HCT-116 colon = tested on: HCT-116 colon
LOX IMVI melanoma = tested on: LOX IMVI melanoma
MALME-3M melanoma = tested on: MALME-3M melanoma
MDA-MB-231 breast = tested on: MDA-MB-231 breast
NCI-H460 lung = tested on: NCI-H460 lung
NCI-H522 lung = tested on: NCI-H522 lung
OVCAR-8 ovarian = tested on: OVCAR-8 ovarian
SF-295 CNS = tested on: SF-295 CNS
SF-539 CNS = tested on: SF-539 CNS
SK-MEL-2 melanoma = tested on: SK-MEL-2 melanoma
SK-MEL-28 melanoma = tested on: SK-MEL-28 melanoma
SN12C renal = tested on: SN12C renal
SNB-19 CNS = tested on: SNB-19 CNS
SW-620 colon = tested on: SW-620 colon
U251 CNS = tested on: U251 CNS
DU-145 prostate = tested on: DU-145 prostate
SNB-75 CNS = tested on: SNB-75 CNS
HCC-2998 colon = tested on: HCC-2998 colon

Row | Structure (SMILES) | TGI (786-0 renal) | TGI (HCT-116 colon) | TGI (LOX IMVI melanoma) | TGI (MALME-3M melanoma) | TGI (MDA-MB-231 breast) | TGI (NCI-H460 lung) | TGI (NCI-H522 lung) | TGI (OVCAR-8 ovarian) | TGI (SF-295 CNS) | TGI (SF-539 CNS) | TGI (SK-MEL-2 melanoma) | TGI (SK-MEL-28 melanoma) | TGI (SN12C renal) | TGI (SNB-19 CNS) | TGI (SW-620 colon) | TGI (U251 CNS) | TGI (DU-145 prostate) | TGI (SNB-75 CNS) | TGI (HCC-2998 colon)
1 | CN(C)CC(CN(C)C)c1ccccn1 | > 100 µM | > 100 µM | > 100 µM | > 100 µM | > 100 µM | > 100 µM | > 100 µM | > 100 µM | > 100 µM | > 100 µM | > 100 µM | > 100 µM | > 100 µM | > 100 µM | > 100 µM | > 100 µM | – | – | –
2 | S=C1Cc2c([nH]c3ccccc23)-c2ccccc2N1 | > 100 µM | > 100 µM | > 100 µM | > 100 µM | > 100 µM | > 100 µM | – | > 100 µM | > 100 µM | > 100 µM | – | > 100 µM | > 100 µM | > 100 µM | > 100 µM | – | > 100 µM | 66.7 µM | –
3 | CC1=C2C3=C(C)C(=O)C(C)(C)CC[C@@]3(C)[C@]2(C)CCC(C)(C)C1=O | > 100 µM | > 100 µM | > 100 µM | > 100 µM | > 100 µM | – | > 100 µM | > 100 µM | > 100 µM | > 100 µM | – | – | > 100 µM | > 100 µM | > 100 µM | > 100 µM | > 100 µM | > 100 µM | –
4 | O=c1[nH]nc(-c2cccc(Br)c2)[nH]1 | > 100 µM | > 100 µM | > 100 µM | > 100 µM | – | > 100 µM | > 100 µM | > 100 µM | > 100 µM | > 100 µM | > 100 µM | > 100 µM | > 100 µM | > 100 µM | > 100 µM | > 100 µM | > 100 µM | > 100 µM | > 100 µM
5 | Cc1oc2nc(N(C)C)nc(Cl)c2c1C | > 100 µM | > 100 µM | – | – | > 100 µM | > 100 µM | > 100 µM | > 100 µM | > 100 µM | > 100 µM | > 100 µM | > 100 µM | > 100 µM | > 100 µM | > 100 µM | > 100 µM | > 100 µM | > 100 µM | > 100 µM
6 | CC(C(=O)N1c2ccccc2Sc2ccccc21)N1c2ccccc2Sc2ccccc21 (stereo unspecified) | > 100 µM | > 100 µM | > 100 µM | > 100 µM | > 100 µM | > 100 µM | – | > 100 µM | > 100 µM | > 100 µM | > 100 µM | > 100 µM | > 100 µM | > 100 µM | > 100 µM | > 100 µM | > 100 µM | > 100 µM | –
7 | Cc1cc(NS(=O)(=O)c2ccc(N=Nc3c(O)c(C(=O)O)cc4ccccc34)cc2)nc(C)n1 | > 100 µM | > 100 µM | – | > 100 µM | > 100 µM | > 100 µM | > 100 µM | > 100 µM | > 100 µM | > 100 µM | > 100 µM | > 100 µM | – | > 100 µM | > 100 µM | > 100 µM | – | > 100 µM | > 100 µM
8 | Cc1cc(C)cc(Nc2nnc3n2S(=O)(=O)c2cc(C#N)c(Cl)cc2S3)c1 | > 100 µM | 6.37 µM | 9.03 µM | 2.92 µM | 12.8 µM | 12.2 µM | 4.59 µM | – | 9.2 µM | 3.97 µM | 19.5 µM | 14.2 µM | 7.15 µM | 21.6 µM | 4.86 µM | 4.29 µM | 12.5 µM | 7.56 µM | –
9 | Cc1nnc([C@@]2(C)CC[C@H]3[C@@H](CC=C4C[C@@H](O)CC[C@@]43C)[C@@H]2CC#N)o1 | > 100 µM | > 100 µM | > 100 µM | > 100 µM | > 100 µM | – | > 100 µM | > 100 µM | > 100 µM | > 100 µM | > 100 µM | – | > 100 µM | > 100 µM | > 100 µM | > 100 µM | – | > 100 µM | –
10 | Clc1cccc(Cl)c1C1SCC2=Nc3ccccc3CN21 (stereo unspecified) | 32.4 µM | 25.7 µM | 41.1 µM | – | > 100 µM | > 100 µM | – | – | 33.8 µM | 32.9 µM | – | 91.2 µM | > 100 µM | 25.8 µM | > 100 µM | > 100 µM | 68.4 µM | > 100 µM | > 100 µM
11 | Oc1cc(O)c2c(c1)O[C@H](c1cc(O)c(O)c(O)c1)[C@H](O)C2 | 33.5 µM | 40.3 µM | 77.6 µM | > 100 µM | 33.6 µM | 38.5 µM | 38.1 µM | 29.6 µM | 83.7 µM | 48.7 µM | 28.9 µM | > 100 µM | 37 µM | > 100 µM | 32.9 µM | 30.4 µM | > 100 µM | 98 µM | –
12 | C1=C2C3=[N+](CCCC3)CC2Cc2ccsc21 (stereo unspecified) | > 100 µM | > 100 µM | > 100 µM | > 100 µM | > 100 µM | > 100 µM | > 100 µM | > 100 µM | > 100 µM | – | > 100 µM | > 100 µM | > 100 µM | > 100 µM | > 100 µM | > 100 µM | > 100 µM | > 100 µM | –
13 | C[N+](C)(N)CCC[N+](C)(C)N | > 100 µM | > 100 µM | > 100 µM | > 100 µM | > 100 µM | > 100 µM | > 100 µM | > 100 µM | > 100 µM | > 100 µM | > 100 µM | > 100 µM | > 100 µM | > 100 µM | > 100 µM | > 100 µM | > 100 µM | > 100 µM | –
14 | CCC1c2[nH]c3ccccc3c2C[C@H]2C(=O)NC(CCC(=O)OC(C)(C)C)C(=O)N12 (stereo partly specified) | > 100 µM | > 100 µM | > 100 µM | > 100 µM | > 100 µM | – | > 100 µM | > 100 µM | > 100 µM | – | > 100 µM | > 100 µM | > 100 µM | > 100 µM | > 100 µM | > 100 µM | > 100 µM | – | –
15 | O=C(c1ccc(Cl)cc1Cl)N(C(=O)N1CCCCC1)c1ccccc1 | > 100 µM | > 100 µM | > 100 µM | > 100 µM | > 100 µM | – | – | > 100 µM | > 100 µM | > 100 µM | > 100 µM | > 100 µM | > 100 µM | > 100 µM | > 100 µM | > 100 µM | > 100 µM | – | –
16 | Cc1cc(O)c(/C=N/C(=S)NCCc2ccccc2)c(=O)o1 | > 100 µM | > 100 µM | > 100 µM | – | > 100 µM | > 100 µM | – | > 100 µM | > 100 µM | > 100 µM | > 100 µM | > 100 µM | > 100 µM | > 100 µM | > 100 µM | > 100 µM | > 100 µM | > 100 µM | > 100 µM
17 | CCCCn1c(C)c(C(=O)OCC)c2cc(OCc3ccc(C(=O)Nn4c(C)ccc4C)cc3)c(Br)cc21 | > 100 µM | > 100 µM | > 100 µM | > 100 µM | – | > 100 µM | > 100 µM | > 100 µM | > 100 µM | > 100 µM | > 100 µM | > 100 µM | > 100 µM | > 100 µM | > 100 µM | > 100 µM | > 100 µM | > 100 µM | > 100 µM
18 | O=C(CC(=O)n1nc(-c2ccccc2)c(N=Nc2ccc(Cl)cc2)c1-c1ccccc1)Nc1cccc(Cl)c1 | > 100 µM | > 100 µM | – | > 100 µM | > 100 µM | > 100 µM | – | > 100 µM | – | – | > 100 µM | > 100 µM | > 100 µM | > 100 µM | > 100 µM | > 100 µM | – | > 100 µM | > 100 µM
19 | Cc1ccc2nc3ccccc3c(C3C4C(=O)N(c5ccc(Br)cc5Cl)C(=O)C4ON3C(C(N)=O)c3ccccc3)c2c1 (stereo unspecified) | > 25 µM | > 25 µM | > 25 µM | > 25 µM | > 25 µM | > 25 µM | > 25 µM | > 25 µM | > 25 µM | > 25 µM | > 25 µM | > 25 µM | 23.2 µM | > 25 µM | > 25 µM | > 25 µM | > 25 µM | > 25 µM | –
20 | O=P(O)(O)CN1CCN(CP(=O)(O)O)CCN(CP(=O)(O)O)CCN(CP(=O)(O)O)CC1 | > 100 µM | > 100 µM | > 100 µM | – | > 100 µM | > 100 µM | > 100 µM | > 100 µM | > 100 µM | > 100 µM | > 100 µM | – | > 100 µM | > 100 µM | > 100 µM | > 100 µM | > 100 µM | > 100 µM | > 100 µM
21 | O=C1NC(Nc2cccc(Cl)c2)=N/C1=C\c1ccc(Cl)c(Cl)c1 | 13 µM | 14.2 µM | 4.26 µM | 27.8 µM | – | 5.67 µM | 6.62 µM | 16 µM | 17.2 µM | 22.2 µM | 6.77 µM | 32.1 µM | 5.57 µM | 21 µM | 19.6 µM | 14.6 µM | 20.6 µM | 26.6 µM | 5.27 µM

Source: PubChem BioAssay (NCI)
